How the values were obtained:
Type in all cases: in vivo
male BALB/c mice [1] = experiment: Sleep duration and sleep latency in mice (Example 1); conditions: pentobarbital 42 mg/kg, combos together with caffeine
Method: (§1) Five male BALB/c mice per treatment arm (age: 8 weeks; weight: […]) were housed in a controlled environment with a 12:12-h light-dark cycle at 22° C. and were provided with mice chow and water ad libitum. The mice were fasted for 24 hours prior to the study, which was conducted between 1 pm and 5 pm and under the National Institutes of Health's Guidelines for the Care and Use of Laboratory Animals and approved by the Ethics Committee of the Medipol University. The mice were divided into eight groups and anesthetized with urethane (1.25 g/kg, i.p.; Sigma U2500) and carefully placed in a stereotaxic frame. Rectal temperatures were maintained between 36.5° C. and 37.0° C. using a feedback-controlled-heating system (507221F, Harvard Apparatus, ABD). Lidocaine (2.0%) was applied on the incision area to prevent any occurrence of pain. A midline incision was made on the skin along the sagittal suture of the skull. A part of the cranium overlying the left parietal cortex was removed using a dental drill. […]
(§2) After the administration, the mice were placed in individual cages and subjected to measurements of sleep latency and duration. Brain electrical activity were monitored and recorded for a total of 2 hours. […]

GABAA receptor 2 = experiment: Western blot of brain GABAA receptor 2 in caffeine-treated mice (Example 1); conditions: FIG. 1A, male BALB/c mice brain, reduced from 100%, caffeine 7.5 mg/kg i.p., combos given together with caffeine, after two hours
Method: as §1, with “drill. Ag—AgCl ball electrodes were placed on the left somatomotor cortex (1 mm anterior/1.5 mm lateral from bregma; 3 mm posterior/1.5 mm lateral from bregma) and the reference electrode was attached to the left foot for an ECoG recording. Group 1 were treated with saline. To induce sleep disturbance, 7.5 mg/kg caffeine was injected intraperitoneally at minute 15 of recordings to groups 2-8.” for “drill.”

GABAB receptor 1 = experiment: Western blot of brain GABAB receptor 1 in caffeine-treated mice (Example 1); conditions: FIG. 1B, male BALB/c mice brain, reduced from 100%, caffeine 7.5 mg/kg i.p., combos given together with caffeine, after two hours
Method: as §1, with “drill. Ag—AgCl ball electrodes were placed on the left somatomotor cortex (1 mm anterior/1.5 mm lateral from bregma; 3 mm posterior/1.5 mm lateral from bregma) and the reference electrode was attached to the left foot for an ECoG recording. Group 1 were treated with saline. To induce sleep disturbance, 7.5 mg/kg caffeine was injected intraperitoneally at minute 15 of recordings to groups 2-8.” for “drill.”

GABAB receptor 2 = experiment: Western blot of brain GABAB receptor 2 in caffeine-treated mice (Example 1); conditions: FIG. 1C, male BALB/c mice brain, reduced from 100%, caffeine 7.5 mg/kg i.p., combos given together with caffeine, after two hours
Method: as §1, with “drill. Ag—AgCl ball electrodes were placed on the left somatomotor cortex (1 mm anterior/1.5 mm lateral from bregma; 3 mm posterior/1.5 mm lateral from bregma) and the reference electrode was attached to the left foot for an ECoG recording. Group 1 were treated with saline. To induce sleep disturbance, 7.5 mg/kg caffeine was injected intraperitoneally at minute 15 of recordings to groups 2-8.” for “drill.”

GluA1 = experiment: Western blot of brain GluA1 in caffeine-treated mice (Example 1); conditions: FIG. 1D, male BALB/c mice brain, reduced from 100%, caffeine 7.5 mg/kg i.p., combos given together with caffeine, after two hours
Method: as §1, with “drill. Ag—AgCl ball electrodes were placed on the left somatomotor cortex (1 mm anterior/1.5 mm lateral from bregma; 3 mm posterior/1.5 mm lateral from bregma) and the reference electrode was attached to the left foot for an ECoG recording. Group 1 were treated with saline. To induce sleep disturbance, 7.5 mg/kg caffeine was injected intraperitoneally at minute 15 of recordings to groups 2-8.” for “drill.”

GluN1 = experiment: Western blot of brain GluN1 in caffeine-treated mice (Example 1); conditions: FIG. 1E, male BALB/c mice brain, reduced from 100%, caffeine 7.5 mg/kg i.p., combos given together with caffeine, after two hours
Method: as §1, with “drill. Ag—AgCl ball electrodes were placed on the left somatomotor cortex (1 mm anterior/1.5 mm lateral from bregma; 3 mm posterior/1.5 mm lateral from bregma) and the reference electrode was attached to the left foot for an ECoG recording. Group 1 were treated with saline. To induce sleep disturbance, 7.5 mg/kg caffeine was injected intraperitoneally at minute 15 of recordings to groups 2-8.” for “drill.”

GluN2A = experiment: Western blot of brain GluN2A in caffeine-treated mice (Example 1); conditions: FIG. 1F, male BALB/c mice brain, reduced from 100%, caffeine 7.5 mg/kg i.p., combos given together with caffeine, after two hours
Method: as §1, with “drill. Ag—AgCl ball electrodes were placed on the left somatomotor cortex (1 mm anterior/1.5 mm lateral from bregma; 3 mm posterior/1.5 mm lateral from bregma) and the reference electrode was attached to the left foot for an ECoG recording. Group 1 were treated with saline. To induce sleep disturbance, 7.5 mg/kg caffeine was injected intraperitoneally at minute 15 of recordings to groups 2-8.” for “drill.”

5-HT1A = experiment: Western blot of brain 5-HT1A in caffeine-treated mice (Example 1); conditions: FIG. 1G, male BALB/c mice brain, reduced from 100%, caffeine 7.5 mg/kg i.p., combos given together with caffeine, after two hours
Method: as §1, with “drill. Ag—AgCl ball electrodes were placed on the left somatomotor cortex (1 mm anterior/1.5 mm lateral from bregma; 3 mm posterior/1.5 mm lateral from bregma) and the reference electrode was attached to the left foot for an ECoG recording. Group 1 were treated with saline. To induce sleep disturbance, 7.5 mg/kg caffeine was injected intraperitoneally at minute 15 of recordings to groups 2-8.” for “drill.”

male BALB/c mice [2] = experiment: EEG amplitude and frequency in caffeine-treated mice (Example 1); conditions: caffeine 7.5 mg/kg, compositions in combination with caffeine
Method: as §1, §2

OVX female mice = experiment: Serum melatonin by ELISA in OVX female mice (Example 3); conditions: FIG. 3, saline control about 11 pg/ml, caffeine 7.5 mg/kg, composition given with caffeine
Method: (§3) Both OVX female mice and male mice were divided into three groups: group treated with saline, group treated with 7.5 mg/kg caffeine, and group treated with a combination of 7.5 mg/kg caffeine and the magnesium glycinate, L-theanine, GABA, SAMe and propyl gallate composition. […] Levels of serum melatonin were measured by ELISA kits.

male mice = experiment: Serum melatonin by ELISA in male mice (Example 3); conditions: FIG. 3, saline control about 33 pg/ml, caffeine 7.5 mg/kg, composition given with caffeine
Method: as §3

## CCCC(C)C1(CC)C(=O)NC(=O)NC1=O (stereo not shown) [pentobarbital]
Male BALB/c mice [1]; FIG. 1J
  sleep duration: about 50 minutes
Male BALB/c mice [1]; FIG. 1K
  sleep latency: about 2 minutes

## Cn1c(=O)c2c(ncn2C)n(C)c1=O [caffeine]
GABAA receptor 2
  percentage of GABAA receptor 2: about 25%
GABAB receptor 1
  percentage of GABAB receptor 1: about 18%
GABAB receptor 2
  percentage of GABAB receptor 2: about 28%
GluA1
  percentage of GluA1 receptor: about 26%
GluN1
  percentage of GluN1 receptor: about 35%
GluN2A
  percentage of GluN2A receptor: about 20%
5-HT1A
  percentage of 5-HT1A receptor: about 20%
Male BALB/c mice [2]; FIG. 1H, from about 100 mV, within 75 minutes
  EEG amplitude: about 70 mV
Male BALB/c mice [2]; FIG. 1I, from about 100 spikes, in 90 minutes
  EEG frequency: about 200 spikes
OVX female mice
  melatonin level: about 8 pg/ml
Male mice
  melatonin level: about 12 pg/ml
